From ChEMBL document CHEMBL3734654, “Mutational mapping of the transmembrane binding site of the G-protein coupled receptor TGR5 and binding mode prediction of TGR5 agonists” (Eur J Med Chem, 2015)
The source made the active and inactive calls. The rule behind the calls is not given here.

System: T1, G-protein coupled bile acid receptor 1 (Homo sapiens), Q8TDU6 [E169A]
T1 sequence (whole entry): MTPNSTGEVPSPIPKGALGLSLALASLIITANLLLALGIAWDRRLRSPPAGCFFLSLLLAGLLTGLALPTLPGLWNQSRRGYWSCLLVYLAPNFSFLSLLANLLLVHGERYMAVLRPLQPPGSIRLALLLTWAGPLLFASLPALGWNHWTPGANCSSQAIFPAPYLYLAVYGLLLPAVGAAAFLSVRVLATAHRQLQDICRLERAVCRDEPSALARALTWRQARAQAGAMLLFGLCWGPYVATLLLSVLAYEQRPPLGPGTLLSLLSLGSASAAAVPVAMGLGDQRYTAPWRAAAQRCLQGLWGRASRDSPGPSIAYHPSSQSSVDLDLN
Assay: Agonist activity at human TGR5 E169A mutant expressed in HEK293 cells assessed as rise in intracellular cAMP level at 10 uM incubated for 16 hrs by luciferase reporter assay relative to wild type
Format: functional, cell-based

Activity: Active
SMILES: C=C[C@@]1(C)CC(=O)[C@]2(O)[C@@]3(C)[C@@H](O)CCC(C)(C)[C@@H]3[C@H](O)[C@H](OC(C)=O)[C@@]2(C)O1
